Laboratory results published in patent US10806726B2, “Methods of using indazole-3-carb oxamides and their use as Wnt/B-catenin signaling pathway inhibitors” (Samumed, LLC, priority 2016, dated 2020).

Experiments:
[1] = test system: primary human mesenchymal stem cells (hMSCs); experiment: Tenocyte differentiation screening in hMSCs (SCXA-positive cells, 4 days); format: cell-based; details: 96 h, fold change over DMSO
From the text: Representative compounds were screened using primary human mesenchymal stem cells (hMSCs) to determine their ability to induce tenocyte differentiation (process by which tendon is developed).
Primary human mesenchymal stem cells (hMSCs) were purchased from Lonza (Walkersville, Md.) and expanded in Mesenchymal Stem Cell Growth Media (Lonza). Cells between passage 3 and 6 were used for the experiments.
Cells were fixed using 4% formaldehyde (Electron Microscopy Sciences), and stained with anti-Sclerasis (anti-SCXA) antibodies (Abgent, San Diego, Calif.) [Webb S., et. al., Retinoic acid receptor signaling preserves tendon stem cell characteristics and prevents spontaneous differentiation in vitro, Stem Cell Research & Therapy 2016, 7:45] overnight at 4° C. […] Number of cells positive for SCXA in each well was quantified using the Celllnsight CX5. Data was normalized to the average of 12 DMSO treated wells on the same plate using Dotmatics Studies module. The normalized averages (fold change over DMSO) of 3 replicate wells for each compound concentration were calculated. Due to solubility limitations of some of the compounds, values for higher doses were manually corrected and curve fitting and EC50 determinations were performed using Dotmatics Studies.
EC50 for each compound is reported.

[2] = test system: Wnt-responsive promoter driving firefly luciferase in SW480 cells; experiment: Wnt reporter (SP5 promoter-luciferase) screening assay in SW480 cells; format: cell-based; details: Homo sapiens, 24-40 h, top concentration ten micromolar
From the text: Another screening assay for Wnt activity is described as follows. Reporter cell lines can be generated by stably transducing cells of cancer cell lines (e.g., colon cancer) with a lentiviral construct that include a Wnt-responsive promoter driving expression of the firefly luciferase gene.
Lentiviral constructs can be made in which the SP5 promoter, a promoter having eight TCF/LEF binding sites derived from the SP5 promoter, is linked upstream of the firefly luciferase gene. The lentiviral constructs can also include a hygromycin resistance gene as a selectable marker. The SP5 promoter construct can be used to transduce SW480 cells, a colon cancer cell line having a mutated APC gene that generates a truncated APC protein, leading to de-regulated accumulation of β-catenin.
Cultured SW480 cells bearing a reporter construct can be distributed at approximately 10,000 cells per well into 96 well or 384 well plates. Compounds from a small molecule compound library can then be added to the wells in half-log dilutions using a ten micromolar top concentration. A series of control wells for each cell type receive only buffer and compound solvent. Twenty-four to forty hours after the addition of compound, reporter activity for luciferase can be assayed, for example, by addition of the BrightGlo luminescence reagent (Promega) and the Victor3 plate reader (Perkin Elmer). Readings can be normalized to DMSO only treated cells, and normalized activities can then be used in the EC50 calculations.

| EC50 [1] | EC50 [2] | SMILES |
| --- | --- | --- |
| 14.6 µM | 3.1 µM | O=C(NC1CCCCC1)c1cncc(-c2ccc3[nH]nc(C(=O)Nc4cccnc4)c3c2)c1 [compound 59, 5-(5-(Cyclohexylcarbamoyl)pyridin-3-yl)-N-(pyridin-3-yl)-1H-indazole-3-carboxamide] |
| 2.67 µM | 0.85 µM | O=C(NCc1cccnc1)c1n[nH]c2ccc(-c3cncc(CN4CCCCC4)c3)cc12 [compound 76, 5-(5-(Piperidin-1-ylmethyl)pyridin-3-yl)-N-(pyridin-3-ylmethyl)-1H-indazole-3-carboxamide] |
| 5.54 µM | 0.033 µM | CN(C)Cc1cncc(NC(=O)c2n[nH]c3ccc(-c4cncc(CN5CCCC5)c4)cc23)c1 [compound 106, N-(5-((Dimethylamino)methyl)pyridin-3-yl)-5-(5-(pyrrolidin-1-ylmethyl)pyridin-3-yl)-1H-indazole-3-carboxamide] |
| 10.2 µM | 0.1 µM | O=C(Nc1ccc(C(F)(F)F)nc1)c1n[nH]c2ccc(-c3cncc(CN4CCCCC4)c3)cc12 [compound 63, 5-(5-(Piperidin-1-ylmethyl)pyridin-3-yl)-N-(6-(trifluoromethyl)pyridin-3-yl)-1H-indazole-3-carboxamide] |
| > 100 µM | 0.085 µM | O=C(Nc1cccnc1)c1n[nH]c2ccc(-c3cncc(N4CCCC4)c3)cc12 [compound 189, N-(Pyridin-3-yl)-5-(5-(pyrrolidin-1-yl)pyridin-3-yl)-1H-indazole-3-carboxamide] |
| 4.55 µM | 0.16 µM | O=C(Nc1cccnc1)c1n[nH]c2ccc(-c3cccnc3)cc12 [compound 4, N,5-di(pyridin-3-yl)-1H-indazole-3-carboxamide] |
| > 100 µM | 0.063 µM | O=C(Nc1ccc(N2CCCC2)nc1)c1n[nH]c2ccc(-c3cccnc3)cc12 [compound 53, 5-(Pyridin-3-yl)-N-(6-(pyrrolidin-1-yl)pyridin-3-yl)-1H-indazole-3-carboxamide] |
| 5.27 µM | 0.066 µM | CN(C)Cc1cncc(NC(=O)c2n[nH]c3ccc(-c4cncc(CN5CCCCC5)c4)cc23)c1 [compound 86, N-(5-((Dimethylamino)methyl)pyridin-3-yl)-5-(5-(piperidin-1-ylmethyl)pyridin-3-yl)-1H-indazole-3-carboxamide] |
| > 100 µM | 0.322 µM | O=C(Nc1ccc(-c2ccc(F)cc2)nc1)c1n[nH]c2ccc(-c3cncc(CN4CCCCC4)c3)cc12 [compound 73, N-(6-(4-Fluorophenyl)pyridin-3-yl)-5-(5-(piperidin-1-ylmethyl)pyridin-3-yl)-1H-indazole-3-carboxamide] |
| > 100 µM | ≥ 10 µM | CN1CCN(c2ncccc2NC(=O)c2n[nH]c3ccc(-c4cccnc4)cc23)CC1 [compound 11, N-(2-(4-Methylpiperazin-1-yl)pyridin-3-yl)-5-(pyridin-3-yl)-1H-indazole-3-carboxamide] |
| 10.2 µM | 0.065 µM | CN(C)CCN(C)c1ccc(NC(=O)c2n[nH]c3ccc(-c4cncc(CN5CCCCC5)c4)cc23)cn1 [compound 74, N-(6-((2-(Dimethylamino)ethyl)(methyl)amino)pyridin-3-yl)-5-(5-(piperidin-1-ylmethyl)pyridin-3-yl)-1H-indazole-3-carboxamide] |
| 8.04 µM | 0.035 µM | Nc1cncc(-c2ccc3[nH]nc(C(=O)Nc4ccc(N5CCCCC5)nc4)c3c2)c1 [compound 182, 5-(5-Aminopyridin-3-yl)-N-(6-(piperidin-1-yl)pyridin-3-yl)-1H-indazole-3-carboxamide] |
| > 100 µM | 5 µM | O=C(Nc1ccc(C(F)(F)F)nc1)c1n[nH]c2ccc(-c3cncc(F)c3)cc12 [compound 2, 5-(5-fluoropyridin-3-yl)-N-(6-(trifluoromethyl)pyridin-3-yl)-1H-indazole-3-carboxamide] |
| > 100 µM | 0.013 µM | NC(=O)c1ccc(NC(=O)c2n[nH]c3ccc(-c4cncc(CN5CCCCC5)c4)cc23)cn1 [compound 180, N-(6-carbamoylpyridin-3-yl)-5-(5-(piperidin-1-ylmethyl)pyridin-3-yl)-1H-indazole-3-carboxamide] |
